Assay results as given in US12102695B2, “Half-curcuminoids as amyloid-beta pet imaging agents” (The General Hospital Corporation, priority 2016, dated 2024).

How the values were obtained:
Aβ42 monomers = target: T1, Aβ42 monomers (Homo sapiens, UniProt P05067); assay: Binding constant (Kd) by fluorescence, Aβ42 monomers; details: PBS pH 7.4
T1 construct: Synthetic Aβ peptides (1-40/42) were purchased from rPeptide; purchased rPeptide (Bogart, Ga.); host or cells: synthetic peptide
Protocol: (§1) Starting materials and solvents used in the Examples were purchased from commercial vendors and used without further purification, unless otherwise noted. The pH of the PBS buffer was 7.4. Column chromatography was performed on silica gel (SiliCycle Inc., 60 Å, […]) slurry packed into glass columns. Synthetic Aβ peptides (1-40/42) were purchased from rPeptide (Bogart, Ga., 30622). Aggregates for in vitro studies were generated by the slow stirring of Aβ40 in PBS buffer for 3 days at room temperature. CRANAD-101F (Example 1) was dissolved in DMSO to prepare a 25.0 μM stock solution. ^1H and ^13C NMR spectra were recorded at […] and 125 MHz, respectively, and reported in ppm downfield from tetramethylsilane (TMS). Fluorescence measurements were performed using an F-4500 fluorescence spectrophotometer (Hitachi). […]
(§2) To record the fluorescence response of CRANAD-101 with Aβs, the following procedure was used. Step 1: 1.0 mL of PBS buffer was added to a quartz cuvette as a blank control and its fluorescence was recorded with the same parameters as for CRANAD-101. Step 2: The fluorescence emission spectrum of a CRANAD-101 solution (1.0 mL, 250 nM) was recorded with excitation at 420 nm and emission from 450 to 800 nm. […] The emission spectra was recorded (Excitation=420 nm, Emission=450-800 nm). […]

[1] = system: Aβs, including monomers, dimers, oligomers, and aggregates; assay: Fluorescence spectral testing with Aβs; assay type: binding; details: probe 250 nM, Aβ 250 nM, PBS, excitation 420 nm, FIG. 2
Protocol: (§3) To record the fluorescence response of CRANAD-101 with Aβs, the following procedure was used. Step 1: 1.0 mL of PBS buffer was added to a quartz cuvette as a blank control and its fluorescence was recorded with the same parameters as for CRANAD-101. Step 2: The fluorescence emission spectrum of a CRANAD-101 solution (1.0 mL, 250 nM) was recorded with excitation at 420 nm and emission from 450 to 800 nm. Step 3: To the CRANAD-101 solution from Step 2, 10 μL Aβs (25 μM) was added (final concentration 250 nM). The emission spectra was recorded (Excitation=420 nm, Emission=450-800 nm). The final spectra from Steps 2 and 3 were corrected using the blank control from Step 1.
(§4) The emission peak of CRANAD-101 was approximately 550 nm, and its excitation peak was approximately 420 nm. To confirm whether CRANAD-101 was responsive to Aβs, including monomers, dimers, oligomers, and aggregates, PBS buffer was used as a blank, CRANAD-101 (250 nM, final concentration) was added in PBS buffer and the fluorescence intensity was recorded. Next, Aβ monomer (250 nM, final concentration) was added, and the fluorescence intensity was recorded. The same procedure was then performed for Aβ dimers, Aβ oligomers, and Aβ aggregates. The binding constant (Kd) of CRANAD-101 was also measured for Aβs.

Aβ42 dimers = target: T2, Aβ42 dimers (Homo sapiens, UniProt P05067); assay: Binding constant (Kd) by fluorescence, Aβ42 dimers; details: PBS pH 7.4
T2 construct: Synthetic Aβ peptides (1-40/42) were purchased from rPeptide; purchased rPeptide (Bogart, Ga.); host or cells: synthetic peptide
Protocol: as §1, §2

Aβ plaques = assay: Brain slice testing, fluorescence microscopy of APP/PS1 mouse brain slice; details: 11-month old APP/PS1 mouse slice, 25 μM, 30 minutes, FIG. 3A
Protocol: A brain slice of 11-month old APP/PS1 mouse was washed with double-distilled water for 5 minutes, then fixed with 4% formalin for 5 minutes, and washed with double-distilled water. First, a background image of a brain slice was taken using a fluorescence microscope. Next, an image was taken after the slice was incubated with CRANAD-101 (25 μM) for 30 minutes.

[2] = system: Aβ plaques and cerebral amyloid angiopathy (CAA); assay: Two-photon microscopic imaging of APP/PS1 mouse; assay type: in vivo; details: 15-month old APP/PS1 mouse, FIG. 5B
Protocol: (§5) To investigate whether CRANAD-101 was capable of penetrating brain blood barrier (BBB), two-photon microscopic imaging was conducted using a 15-month old wild type (WT) mouse. A mouse ([…]) was anesthetized with Ketamine/xylazine (70 mg/kg) and a cranial imaging window was surgically prepared. CRANAD-101 (2.0 mg/kg in a fresh solution containing 15% CREMOPHOR EL®, 15% DMSO and 70% PBS) was injected intravenously at time=0 min by a bolus injection during image acquisition. Two-photon fluorescence excitation was performed with a 900-nm laser (Prairie Ultima). Imaging was performed using a two-photon microscope (Prairie Technologies) equipped with a 20× water immersion objective (N.A. 1.0, Zeiss). Images were collected for 15 seconds per frame 512×512 μm matrix for 45 min with a green (500-550 nm) channel.
The accumulation of CRANAD-101 in the brain reached a peak at 10 minutes after i.v. injection (FIG. 5C, panel f). To examine whether CRANAD-101 could label Aβ plaques and cerebral amyloid angiopathy (CAA) in vivo, a similar two-photo microscopic imaging procedure was performed with a 15-month old APP/PS1 mouse.

Aβ40 aggregates = target: T3, Aβ40 aggregates (Homo sapiens, UniProt P05067); assay: Binding constant (Kd) by fluorescence, Aβ aggregates; details: PBS pH 7.4
T3 construct: Synthetic Aβ peptides (1-40/42) were purchased from rPeptide; purchased rPeptide (Bogart, Ga.); host or cells: synthetic peptide
Protocol: as §1, §2

[3] = Fluorescence spectrum of the probe; assay type: physicochemical
Protocol: as §3, §4

Aβ42 oligomers = target: T4, Aβ42 oligomers (Homo sapiens, UniProt P05067); assay: Binding constant (Kd) by fluorescence, Aβ42 oligomers; details: PBS pH 7.4
T4 construct: Synthetic Aβ peptides (1-40/42) were purchased from rPeptide; purchased rPeptide (Bogart, Ga.); host or cells: synthetic peptide
Protocol: as §1, §2

[4] = Two-photon microscopic imaging of wild type mouse (BBB penetration); assay type: in vivo; details: WT mouse
Protocol: as §5

diffusible Aβ deposits = assay: Fluorescence microscopy of AD patient brain slice; set-up: species or system human; details: FIG. 3D
Aβ = assay: In vivo PET imaging, 14-month old APP/PS1 and WT mice; set-up: species or system mouse; details: i.v.
Protocol: In vivo PET imaging was conducted with 14-month old APP/PS1 mice (Charles River Laboratories, MA) and age-matched wild-type (WT) mice. Mice were injected via tail-vein with 100 μL of 20-30 μCi of [^18F]CRANAD-101 (Example 2) in 10% ethanol saline. MicroPET imaging experiments were performed on a Sophie Biosciences microPET G4 scanner (Culver City, Calif., USA). 60-Minute dynamic imaging was performed under general anesthesia (isoflurane/O2). Imaging analysis was conducted with Amide.
In vivo PET imaging was conducted with 14-month old APP/PS1 mice and age-matched WT mice. Mice were injected (i.v.) with 100 μL of 20-30 μCi of [^18F]CRANAD-101 in 10% ethanol saline. The specific activity was determined to be […] at the time of injection.

T4 sequence (P05067 672-713 limits assumed): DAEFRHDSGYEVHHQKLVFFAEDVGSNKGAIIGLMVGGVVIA
T1 sequence (P05067 672-713 limits assumed): as above
T2 sequence (P05067 672-713 limits assumed): as above
T3 sequence (P05067 672-711 limits assumed): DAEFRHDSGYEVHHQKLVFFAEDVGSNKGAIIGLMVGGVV

With `Cc1nn(-c2ccc(OCCCF)cc2)cc1C=CC1=CC(C2CCC2)=[O+][B-](F)(F)O1` [CRANAD-101, (E)-4-(2-(6-cyclobutyl-2,2-difluoro-2H-1,3,2^4-dioxaborinin-4-yl)vinyl)-1-(4-(3-fluoropropoxy)phenyl)-3-methyl-1H-pyrazole] the Kd (Aβ42 monomers) was 11.6 ± 11 nM, the “fluorescence response to Aβs” value [1] was “strong responses to Aβs” and the Kd (Aβ42 dimers) was 44 ± 18.9 nM. For the same compound, the “staining of Aβ plaques in brain slice” value (Aβ plaques) was “Aβ plaques could be imaged after the incubation”, the “labelling of Aβ plaques and CAA in vivo” value [2] was “clearly highlighted Aβ plaques and CAAs” and the Kd (Aβ40 aggregates) was 188 ± 104 nM. The emission peak [3] was “approximately 550 nm”, the excitation peak [3] was “approximately 420 nm” and the Kd (Aβ42 oligomers) was 780 ± 173 nM. For the same compound, the “crossing of the BBB” value ([4]; 2.0 mg/kg i.v., two-photon, FIG. 5A, 5C) was “quickly crossed the BBB”, the “time of peak accumulation in the brain” value ([4]; after i.v. injection 2.0 mg/kg, FIG. 5C panel f) was 10 min and the “staining of Aβ deposits in AD patient brain slice” value (diffusible Aβ deposits) was “can stain diffusible Aβ deposits”. For the same compound, the “penetration of the blood-brain barrier and brain accumulation vs other reported 18F labeled curcumin analogues” value (Aβ) was “much higher penetration of the blood-brain barrier (BBB) and brain accumulation”.
